Our source for the IC50, Activity and inhibition values is ChEMBL document CHEMBL5579792, “Natural products fragment-based design and synthesis of a novel pentacyclic ring system as potential MAPK inhibitor” (Bioorg Med Chem Lett, 2024).

In test [1] the test system is A549. The test can be described thus: Antiproliferative activity against human A549 cells assessed as inhibition of cell growth by MTT assay. The test is classed as functional, cell-based.
For another test, the system named is HCT-116. The test can be described thus: Antiproliferative activity against human HCT-116 cells assessed as inhibition of cell growth by MTT assay. The class given is functional, cell-based.
The test system of the next test is MDA-MB-231. The test can be described thus: Antiproliferative activity against human MDA-MB-231 cells assessed as inhibition of cell growth by MTT assay. The test is classed as functional, cell-based.
Test [2] concerns A549. The test can be described thus: Induction of apoptosis in human A549 cells assessed as late apoptotic cells at 0.11 uM incubated for 48 hrs by Annexin V/PI staining based flow cytometry analysis (reference value: 2.96%). The test is classed as functional.
For test [3], the system named is A549. The test can be described thus: Inhibition of cell migration in human A549 cells at 0.34 uM measured after 48 hrs by scratch assay relative to control. The test is classed as functional.
Test [4] relates to A549. The test can be described thus: Induction of cell cycle arrest in human A549 cells assessed as accumulation at S phase at 0.22 uM incubated for 48 hrs by PI staining based flow cytometry analysis (reference value: 12.105%). The test is classed as functional.
In test [5] the test system is A549. The test can be described thus: Antiproliferative activity against human A549 cells assessed as inhibition of cell growth measured after 72 hrs by MTT assay. The test is classed as functional, cell-based. The settings on record: A549, 72 h.
The subject of test [6] is A549. The test can be described thus: Induction of cell cycle arrest in human A549 cells assessed as accumulation at S phase at 0.34 uM incubated for 48 hrs by PI staining based flow cytometry analysis (reference value: 12.105%). The class given is functional.
In test [7] the test system is A549. The test can be described thus: Downregulation of phosphorylated JNK/JNK protein expression in human A549 cells at 0.11 to 0.34 uM measured after 48 hrs by Western blot analysis. The settings on record: dose 0.11-0.34 µM. The class given is functional, cell-based.
Test [8] has as its system A549. The test can be described thus: Induction of apoptosis in human A549 cells assessed as increase in caspase-3 protein expression at 0 to 0.34 uM measured after 48 hrs by Western blot analysis. The settings on record: dose 0-0.34 µM. The test is classed as functional, cell-based.
For test [9], the system named is A549. The test can be described thus: Inhibition of cell migration in human A549 cells at 0.34 uM measured after 24 hrs by scratch assay relative to control. The class given is functional.
The subject of test [10] is A549. The test can be described thus: Induction of apoptosis in human A549 cells assessed as reduction in Bcl-2 protein expression at 0 to 0.34 uM measured after 48 hrs by Western blot analysis. The class given is functional, cell-based. The settings on record: dose 0-0.34 µM.
Test [11] concerns A549. The test can be described thus: Induction of cell cycle arrest in human A549 cells assessed as accumulation at G2/M phase at 0.22 uM incubated for 48 hrs by PI staining based flow cytometry analysis (reference value: 1.14%). The class given is functional.
Test [12] has as its system A549. The test can be described thus: Induction of cell cycle arrest in human A549 cells assessed as accumulation at G0/G1 phase at 0.34 uM incubated for 48 hrs by PI staining based flow cytometry analysis (reference value: 84.47%). The test is classed as functional.
Test [13] relates to A549. The test can be described thus: Induction of cell cycle arrest in human A549 cells assessed as accumulation at S phase at 0.11 uM incubated for 48 hrs by PI staining based flow cytometry analysis (reference value: 12.105%). The test is classed as functional.
In test [14] the test system is A549. The test can be described thus: Antiproliferative activity against human A549 cells assessed as inhibition of cell growth measured after 48 hrs by MTT assay. Particulars: A549, 48 h. The test is classed as functional, cell-based.
Test [15] has as its system A549. The test can be described thus: Induction of apoptosis in human A549 cells assessed as late apoptotic cells at 0.22 uM incubated for 48 hrs by Annexin V/PI staining based flow cytometry analysis (reference value: 2.96%). The test is classed as functional.
Test [16] deals with A549. The test can be described thus: Induction of apoptosis in human A549 cells assessed as increase in BAX protein expression at 0 to 0.34 uM measured after 48 hrs by Western blot analysis. The settings on record: dose 0-0.34 µM. The class given is functional, cell-based.
In test [17] the test system is A549. The test can be described thus: Induction of cell cycle arrest in human A549 cells assessed as accumulation at G0/G1 phase at 0.11 uM incubated for 48 hrs by PI staining based flow cytometry analysis (reference value: 84.47%). The test is classed as functional.
Test [18] relates to A549. The test can be described thus: Inhibition of cell migration in human A549 cells at 0.22 uM measured after 48 hrs by scratch assay relative to control. The test is classed as functional.
For test [19], the system named is A549. The test can be described thus: Induction of apoptosis in human A549 cells assessed as early apoptotic cells at 0.11 uM incubated for 48 hrs by Annexin V/PI staining based flow cytometry analysis (reference value: 1.79%). The class given is functional.
Test [20] deals with A549. The test can be described thus: Induction of cell cycle arrest in human A549 cells assessed as accumulation at G2/M phase at 0.34 uM incubated for 48 hrs by PI staining based flow cytometry analysis (reference value: 1.14%). The test is classed as functional.
The test system of test [21] is A549. The test can be described thus: Induction of apoptosis in human A549 cells assessed as early apoptotic cells at 0.34 uM incubated for 48 hrs by Annexin V/PI staining based flow cytometry analysis (reference value: 1.79%). The class given is functional.
Test [22] relates to A549. The test can be described thus: Induction of apoptosis in human A549 cells assessed as dead cells at 0.22 uM incubated for 48 hrs by Annexin V/PI staining based flow cytometry analysis (reference value: 4.58%). The test is classed as functional.
For test [23], the system named is A549. The test can be described thus: Induction of apoptosis in human A549 cells assessed as dead cells at 0.11 uM incubated for 48 hrs by Annexin V/PI staining based flow cytometry analysis (reference value: 4.58%). The test is classed as functional.
For test [24], the system named is A549. The test can be described thus: Inhibition of cell migration in human A549 cells at 0.11 uM measured after 48 hrs by scratch assay relative to control. The test is classed as functional.
Test [25] concerns A549. The test can be described thus: Antiproliferative activity against human A549 cells assessed as inhibition of cell growth measured after 24 hrs by MTT assay. The class given is functional, cell-based. Particulars: A549, 24 h.
The test system of test [26] is A549. The test can be described thus: Upregulation of phosphorylated p38/p38 protein expression in human A549 cells at 0.11 to 0.34 uM measured after 48 hrs by Western blot analysis. The test is classed as functional, cell-based. The settings on record: dose 0.11-0.34 µM.
For test [27], the system named is A549. The test can be described thus: Induction of cell cycle arrest in human A549 cells assessed as accumulation at G2/M phase at 0.11 uM incubated for 48 hrs PI staining based by flow cytometry analysis (reference value: 1.14%). The test is classed as functional.
Test [28] relates to A549. The test can be described thus: Induction of cell cycle arrest in human A549 cells assessed as accumulation at G0/G1 phase at 0.22 uM incubated for 48 hrs by PI staining based flow cytometry analysis (reference value: 84.47%). The class given is functional.
For test [29], the system named is A549. The test can be described thus: Induction of apoptosis in human A549 cells assessed as late apoptotic cells at 0.34 uM incubated for 48 hrs by Annexin V/PI staining based flow cytometry analysis (reference value: 2.96%). The test is classed as functional.
In test [30] the test system is A549. The test can be described thus: Induction of apoptosis in human A549 cells assessed as live cells at 0.11 uM incubated for 48 hrs by Annexin V/PI staining based flow cytometry analysis (reference value: 90.7%). The test is classed as functional.
Test [31] deals with A549. The test can be described thus: Induction of apoptosis in human A549 cells assessed as dead cells at 0.34 uM incubated for 48 hrs by Annexin V/PI staining based flow cytometry analysis (reference value: 4.58%). The test is classed as functional.
The subject of test [32] is A549. The test can be described thus: Induction of apoptosis in human A549 cells assessed as live cells at 0.34 uM incubated for 48 hrs by Annexin V/PI staining based flow cytometry analysis (reference value: 90.7%). The test is classed as functional.
Test [33] has as its system A549. The test can be described thus: Inhibition of cell migration in human A549 cells at 0.22 uM measured after 24 hrs by scratch assay relative to control. The class given is functional.
In test [34] the test system is A549. The test can be described thus: Downregulation of phosphorylated ERK/ERK protein expression in human A549 cells at 0.11 to 0.34 uM measured after 48 hrs by Western blot analysis. The class given is functional, cell-based. Particulars: dose 0.11-0.34 µM.
Test [35] relates to A549. The test can be described thus: Induction of apoptosis in human A549 cells assessed as live cells at 0.22 uM incubated for 48 hrs by Annexin V/PI staining based flow cytometry analysis (reference value: 90.7%). The class given is functional.
For test [36], the system named is A549. The test can be described thus: Induction of apoptosis in human A549 cells assessed as early apoptotic cells at 0.22 uM incubated for 48 hrs by Annexin V/PI staining based flow cytometry analysis (reference value: 1.79%). The class given is functional.
Test [37] deals with A549. The test can be described thus: Inhibition of cell migration in human A549 cells at 0.11 uM measured after 24 hrs by scratch assay relative to control. The class given is functional.

Calls of active or inactive are those of the source. No cut-off for these calls is given here.

For the molecule `CC[C@@]1(O)C(=O)OCc2c1cc1n(c2=O)Cc2cc3ccccc3nc2-1` [CAMPTOTHECIN], the half-inhibitory concentration (IC50) in the test with A549 [1] was 0.39 µM.

Regarding `O=C1c2c(ccc(F)c2Cl)-n2c1nc1nc3ccccc3cc1c2=O`, the IC50 with HCT-116 stood at 0.33 µM; in the test on A549 [1] it was 0.53 µM; in the test with MDA-MB-231, 10.3 µM.

Turning to `O=C1c2cc(F)c(Cl)cc2-n2c1nc1nc3ccccc3cc1c2=O`, the IC50 with HCT-116 amounted to 0.4 µM; in the test with A549 [1], 0.43 µM; with MDA-MB-231, 10.1 µM.

Turning to `O=C1c2ccccc2-n2c1nc1cc3ccccc3cc1c2=O` [BENZO[K]TRYPTANTHRIN], the IC50 with HCT-116 turned out to be 13.5 µM; with A549 [1], 10.3 µM; in the test with MDA-MB-231, 17.6 µM.

For the molecule `Cc1ccc2c(c1Cl)C(=O)c1nc3nc4ccccc4cc3c(=O)n1-2`, the IC50 with HCT-116 is 43.2 µM; with A549 [1], 35.1 µM; with MDA-MB-231 it was 1.95 µM.

Consider `O=C1c2cc(F)ccc2-n2c1nc1nc3ccccc3cc1c2=O`, for which the results for the IC50 with HCT-116, in the test on A549 [1] and in the test on MDA-MB-231 were 15 µM, 6.45 µM and 10.1 µM, respectively.

Regarding `O=c1c2cc3ccccc3nc2nc2n1-c1ccccc1/C2=N\O`, the IC50 in the test on HCT-116, with A549 [1] and with MDA-MB-231 was above 100 µM throughout.

On to `N/N=C1\c2ccccc2-n2c1nc1nc3ccccc3cc1c2=O`, for which the concentration for half-maximal inhibition (IC50) with HCT-116, in the test on A549 [1] and in the test on MDA-MB-231 was above 100 µM in each case.

As to `O=C1c2ccccc2-n2c1nc1nc3ccccc3cc1c2=O`, the Activity in the test with A549 [2] amounted to 17.4%; in the test with A549 [4], 25.65%; with A549 [6], 29.02%; in the test on A549 [11], 8.87%; in the test with A549 [12], 60.39%; in the test with A549 [13] it was 22.63%. For the same molecule, the Activity in the test with A549 [15] was 18%; in the test on A549 [17] it was 72.8%; in the test on A549 [19] it was 7.83%; in the test on A549 [20], 9.58%; in the test on A549 [21], 7.39%; in the test on A549 [22], 6.65%. The Activity in the test on A549 [23] was determined as 7.17%; with A549 [27] it was 5.59%; in the test on A549 [28] it was 62.47%; with A549 [29], 19.9%; with A549 [30], 67.5%; in the test with A549 [31], 9.32%. In addition, the Activity came out at 63.4% with A549 [32], 66.9% with A549 [35] and 8.47% with A549 [36]. The IC50 in the test with HCT-116 was 25.2 µM; with A549 [5], 250 nM; in the test on A549 [1], 0.34 µM; in the test on A549 [14] it was 340 nM; with MDA-MB-231, 3.54 µM; in the test with A549 [25], 430 nM. Also, the inhibition at 0.34 µM in the test on A549 [3] was determined as 60%; in the test on A549 [9], 38%. In addition, the outcome with A549 [7], with A549 [8], in the test with A549 [10], in the test with A549 [16], in the test on A549 [26] and in the test on A549 [34] was Active. Also, the inhibition at 0.22 µM is 56% with A549 [18] and 31% in the test on A549 [33]. Besides, the inhibition at 0.11 µM in the test with A549 [24] came to 50%; in the test with A549 [37], 22%.
